In patent publication US20070078262A1, “Thiomorpholino steroid compounds, the use thereof for the preparation of meiosis-regulating medicaments and method for the preparation thereof” (SCHERING AKTIENGESELLSCHAFT, priority 2003, published 2007):
Values joined by “and” are separate entries in the source; they are usually repeats but may differ in a detail not shown here. Equal entries are not always repeated.

Columns and labels:
[1] = tested on: Cumulus Enclosed Oocytes (CEOs); test: Cumulus enclosed oocyte assay (meiosis activation in Hx-medium); format: cell-based, mice (C57BL/6J×DBA/2J F1); conditions: for Meiosis Activation [%]: in the presence of Hx in CEOs
Description: Activation of MI arrested oocytes can be assessed by the disappearance of the germinal vesicle (GV). The disappearance of the GV, called germinal vesicle breakdown (GVB) is followed by the extrusion of the first polar body (PB) (C. Grøndahl, J. L. Ottesen, M. Lessi, P. Faarup, A. Murray, F C Grønvald, C. Hegele-Hartung, I. Ahnfelt-Rønne, “Meiosis-activating sterol promotes resumption of meiosis in mouse oocytes cultured in vitro in contrast to related oxysterols”, Biol. Reprod., 58, 1297-1302 (1998); C. Hegele-Hartung, J. Kuhnke, M. Lessi, C. Grøndahl, J. Ottesen, H. M. Beier, S. Eisner, U. Eichenlaub-Ritter, “Nuclear and cytoplasmic maturation of mouse oocytes after treatment with synthetic meiosis-activating sterol in vitro”, Biol. Reprod., 61, 1362-1372 (1999)).
Cumulus Enclosed Oocytes (CEOs) were obtained from immature female mice (C57BL/6J×DBA/2J F1) weighing 13-16 grams, that were kept under controlled temperature (20-22° C.), light (lights on 06:00-18:00) and relative humidity (50-70%). The mice received an intra-peritoneal injection of 0.2 ml gonadotropins containing 20 IU FSH. 48 hours later the animals were killed by cervical dislocation. The ovaries were dissected out and the oocytes were isolated in Hx-medium (see below) under a stereomicroscope by manual rupture of the follicles using a pair of 27-gauge needles. Cumulus enclosed oocytes displaying an intact germinal vesicle were placed in α-minimum essential medium (α-MEM without ribonucleosides supplemented with 8 mg/ml Human Serum Albumin (HSA), 0.23 mM pyruvate, 2 mM glutamine, 100 IU/ml penicillin and 100 μg/ml streptomycin). To maintain the oocytes in the germinal vesicle stage this medium was supplemented with 3 mM hypoxanthine, designated as Hx-medium.
The CEOs (35-45 CEOs in 0.4 ml Hx-medium) were cultured in a humidified atmosphere of 5% CO2 in air for 24 hours at 37° C. One control well (identical medium with no addition of test compound) was always cultured simultaneously with test wells.
By the end of the culture period the number of CEOs with germical vesicle (GV), germinal vesicle breakdown (GVB) and polar bodies (PB), respectively, were counted. The % GVB, defined as the percentage of CEOs undergoing GVB per total number of CEOs in that well, was calculated as: % GVB=(number of GVB+number of PB/total number of CEOs)×100
The % PB was defined as the percentage of CEOs displaying one extruded polar body per total number of CEOs in that well.
For each compound two experiments were performed and the results compared to Hx-medium as a control and FF-MAS at a concentration of 10 μM.

mouse oocytes = test: In vitro fertilization (IVF) after in vitro maturation of oocytes; format: cell-based, mice (C57BL/6J×DBA/2J F1); conditions: in vitro maturation without hypoxanthine, then IVF; n=18
Method: Changes in the subsequent IVF are therefore probably due to effects of the test compounds on cytoplasmic maturation.
Immature female mice (C57BL/6J×DBA/2J F1) in the age of 21-24 days were used as oocyte donors. Animals were given an i.p. injection of 10 IU pregnant mare serum gonadotropin (PMSG) to induce follicular growth. Animals were killed by cervical dislocation 48 hours later and the ovaries were dissected out. As sperm donors eight week old male mice (C57BL/6J×DBA/2J F1) were used.
Oocytes were isolated from the ovaries by manual rupture of the follicles using a pair of 27-gauge needles. Spherical naked oocytes (NkO) and CEOs displaying an intact GV were selected and placed in α-minimum essential medium (α-MEM without ribonucleosides, Gibco BRL, Gaithersburg; Cat. No. 22561) supplemented with 8 mg/ml human serum albumin (HSA), 0.23 mM pyruvate, 2 mM glutamine, 100 IU/ml penicillin and 100 μg/ml streptomycin.
The oocytes were rinsed three times in culture medium without oil overlay in 4-well multidishes containing 0.4 ml of the respective oocyte culture medium.
The oocyte culture medium was supplemented with 6.4% Fetal Bovine Serum (FBS). Solutions of novel compound IA and of the two compounds in comparison as mentioned were prepared from a stock solution containing 1 mg/ml of compound dissolved in absolute ethanol. The control group was cultured with a corresponding amount of ethanol.
After a culture time of 18-19 hours oocytes were further processed for in vitro fertilization. […] Oocytes were briefly washed without any test compound and subsequently transferred to the insemination dishes prepared in advance, which contained approximately 600.000 capacitated sperm cells per 500 μl IVF medium (obtained from the epididymides of male mice). The dishes were then incubated under defined gas conditions (5% CO2 in air) at 37° C. in a modified α-MEM IVF medium supplemented with 8 mg/ml HSA, 0.23 mM pyruvate, 100 IU penicillin/ml and 100 μg streptomycin/ml as described above for oocyte maturation.
Examination of the oocytes was carried out 22-24 hours after insemination in order to check fertilization and to record the number of pronucleus (PN) and 2-cell stage embryos. The fertilization rate was determined as the number of oocytes that had reached the PN or 2-cell embryo stage, relative to the total number inseminated.

[2] = tested on: in vitro fertilized ova (2-cell embryos); test: Retransfer study / fertility trial (in vitro fertilized 2-cell embryos transferred into foster mothers); format: in vivo, mice; conditions: for No. of Implantation Spots: Odds / No. of Viable Fetuses: Odds: successes divided by failures; for No. of Implantation Spots: Failures: transferred ova minus implantation spots; for No. of Viable Fetuses: Failures: transferred ova minus viable fetuses; for Odds Ratio for comparison to FF-MAS, No. of Implantation Spots / Odds Ratio for comparison to FF-MAS, No. of Viable Fetuses: versus FF-MAS 10 μM; for shows significant improvement of odds versus vehicle control, number of implantation spots: 95% confidence interval of odds ratio, all doses tested
Method: In vitro fertilization was performed as described above for the IVF experiment.
One day before the retransfer female recipient mice (foster mothers) in pro-estrus cycle state were mated with vasectomized males in order to trigger pseudogestation. One day later a vaginal check was performed. Animals with a positive, sperm-free vaginal plug (successful mating) entered the study. This day was designated day 0 of gestation (=day 0 after the sterile copulation, day 0 p.c.). […] 2-cell embryos were transferred into the right tube of the foster mothers on day 0 after the sterile copulation under anesthesia. The contra-lateral tube remained unused (check for pseudogestation). The foster mothers were sacrified on day 19 of gestation. The fetuses were removed and examined. The ovaries and uteri were removed immediately to record the number of implantation sites, viable and dead fetuses and resorptions. Apparently non-pregnant uteri were placed in a 10% aqueous solution of ammonium sulfide for about 10 min to stain possible implantation sites in the endometrium. The viable fetuses were individually weighed and their sex determined by inspection of their gonads.
In a fertility trial 269 mice were randomized into 6 groups and implanted with 7-10 in vitro fertilized ova. The in vitro fertilization took place in the presence of vehicle (group 1) or of a substance (groups 2 to 6).
The fertility raising effect of the substances in comparison to the vehicle control was of main interest. Moreover, an improvement compared to the substance FF-MAS was also investigated.
Variables of primary interest are the number of implantation spots and the number of viable fetuses.
The data for implantation spots as well as for viable fetuses have to be considered to have binary character, i.e. it can be expressed in rates or in a number of successes and failures with respect to the number of transferred ova. Therefore, methods as outlined by D. Collett: “Modelling Binary Data”, 2nd edition, Chapman & Hall/CRC, Boca Raton, constitute appropriate approaches to the data analysis.
The odds ratio of one group as compared to the other is defined as: odds ratio (group 1, group 2)=or1,2=odds (group 1)/odds (group 2)
where the odds of a group can be estimated by the number of successes divided by the number of failures in that group.
To reach statements about the significance of any findings, 95% confidence-intervals for the odds ratios are computed as: [ exp(log(or1,2)[…]1.96·se(log(or1,2))); exp(log(or1,2)+1.96·se(log(or1,2)))]
wherein se(log(or1,2)) is the standard error of the log odds ratio (see D. Collett (2003) for the corresponding formula).
As a basis for the computation of odds ratios, the number of successes (i.e., the number of implantation spots of number of viable fetuses) and failures (i.e., the number of transferred ova minus the number of implantation spots or number of viable fetuses) are computed for all groups.

rat oocytes (CEO and DO) = conditions: micromolar concentrations; CEO and DO cultured in vitro; cited from earlier work
follicle culture system = test: Follicle culture system (induction of maturation); format: cell-based
[3] = Solubility in water (measured by turbimetry)
[4] = 10 μM, Table 1, two experiments per compound, FF-MAS run in parallel

SMILES	Meiosis Activation [%] [1, 4]	Meiosis Activation [%] ([1]; 10 μM, Table 2)	fertilization rates of mouse oocytes compared to vehicle control (FIG. 3) (mouse oocytes)	No. of Implantation Spots: Success ([2]; 10 μM)	No. of Viable Fetuses: Success ([2]; 10 μM)	Odds Ratio for comparison to vehicle control, No. of Implantation Spots ([2]; 10 μM)	Odds Ratio for comparison to vehicle control, No. of Viable Fetuses ([2]; 10 μM)	No. of Implantation Spots: Odds ([2]; 10 μM)	No. of Viable Fetuses: Odds ([2]; 10 μM)	No. of Implantation Spots: Failures ([2]; 10 μM)	No. of Viable Fetuses: Failures ([2]; 10 μM)	shows significant improvement of odds versus vehicle control, number of implantation spots [2]	other results
C[C@H](CN1CCSCC1)[C@H]1CCC2=C3CC[C@H]4C(C)(C)[C@@H](O)CC[C@]4(C)[C@H]3CC[C@@]21C [Compound IB, (20S)-20-[(thiomorpholin-4-yl)methyl]-4,4-dimethyl-5α-pregna-8(14)-en-3β-ol]	15%	–	–	–	–	–	–	–	–	–	–	–	–
C[C@H](CN1CCSCC1)[C@H]1CC=C2C3=C(CC[C@@]21C)[C@@]1(C)CC[C@H](O)C[C@@H]1CC3 [Compound IC, (20S)-20-[(thiomorpholin-4-yl)methyl]-5α-pregna-8,14-dien-3β-ol]	64% and 69%	–	–	–	–	–	–	–	–	–	–	–	–
C[C@H](CN1CCSCC1)[C@H]1CC[C@H]2C3=CC=C4C(C)(C)[C@@H](O)CC[C@]4(C)[C@H]3CC[C@]12C [Compound ID, (20S)-20-[(thiomorpholin-4-yl)methyl]-4,4-dimethyl-pregna-5,7-dien-3β-ol]	89% and 58%	–	–	–	–	–	–	–	–	–	–	–	–
C[C@H](CN1CCSCC1)[C@H]1CCC2=C3CC[C@H]4C[C@@H](O)CC[C@]4(C)[C@H]3CC[C@@]21C [Compound IE, (20S)20-[(thiomorpholin-4-yl)methyl]-5α-pregna-8(14)-en-3β-ol]	96% and 80%	60%	–	–	–	–	–	–	–	–	–	–	Meiosis Activation [%] ([1]; 1 μM, Table 2): 44%; Meiosis Activation [%] ([1]; 3 μM, Table 2): 24%; efficiency of meiosis activation among the compounds tested ([1]; CEOs in the presence of Hx): the most efficient compound tested
C[C@H](CN1CCCCC1)[C@H]1CC=C2C3=C(CC[C@@]21C)[C@@]1(C)CC[C@H](O)C(C)(C)[C@@H]1CC3 [Compound No. 2, (20S)-20-[(piperidin-1-yl)methyl]-4,4-dimethyl-5α-pregna-8,14-dien-3β-ol]	–	48%	higher fertilization rates	90	37	1.08	1.24	0.27	0.10	332	385	Neither	No. of Implantation Spots: Success ([2]; 1 μM): 97; No. of Viable Fetuses: Success ([2]; 1 μM): 32; Odds Ratio for comparison to vehicle control, No. of Implantation Spots ([2]; 1 μM): 1.09; Odds Ratio for comparison to vehicle control, No. of Viable Fetuses ([2]; 1 μM): 0.98; No. of Implantation Spots: Odds ([2]; 1 μM): 0.27; No. of Viable Fetuses: Odds ([2]; 1 μM): 0.08; No. of Implantation Spots: Failures ([2]; 1 μM): 357; No. of Viable Fetuses: Failures ([2]; 1 μM): 422; Odds Ratio for comparison to FF-MAS, No. of Implantation Spots ([2]; 1 μM): 0.91; Odds Ratio for comparison to FF-MAS, No. of Viable Fetuses ([2]; 1 μM): 0.66; Odds Ratio for comparison to FF-MAS, No. of Implantation Spots ([2]; 10 μM): 0.91; Odds Ratio for comparison to FF-MAS, No. of Viable Fetuses ([2]; 10 μM): 0.83
CC(C)=CCC[C@@H](C)[C@H]1CC=C2C3=C(CC[C@@]21C)[C@@]1(C)CC[C@H](O)C(C)(C)[C@@H]1CC3 [FF-MAS, 4,4-dimethyl-5α-cholesta-8,14,24-trien-3β-ol]	–	24%	higher fertilization rates	100	45	1.19	1.49	0.30	0.12	335	390	Neither	resumption of meiosis in rat oocytes arrested by IBMX (rat oocytes (CEO and DO)): able to induce resumption of meiosis in a dose-dependent manner; implantation rate per transferred 2-cell embryos (FIG. 4) ([2]; FF-MAS 10 μM, compound IA 1 μM and 10 μM): higher numbers; induction of maturation / activation of meiosis in a follicle culture system (follicle culture system): not able to induce maturation; solubility [3]: < 0.1 µg/mL
